# Target: CB1 (CNR1) (Homo sapiens, UniProt P21554)
# Test: cAMP CNR1 Hunter cell line antagonist assay (CB1 assay)
# Assay type: cell-based
# Details: antagonist mode, cAMP CNR1 Hunter cells, EC80 agonist; read-out: CB1 assay, Efficacy (IC50)
# Procedure: cAMP CNR1 Hunter cell line (Eurofins DiscoveryX) were expanded from freezer stocks and seeded in a total volume of 20 μL into white walled, 384-well microplates and incubated at 37° C. for the appropriate time prior to testing. For antagonist determination, cell media was aspirated from cells and replaced with 10 μL 1:1 HBSS/Hepes:cAMP XS+Ab reagent. 5 μL of 4× compound was added to the cells and incubated at 37° C. for 30 minutes. 5 μL of 4× EC80 agonist was added to cells and incubated at 37° C. for 30 minutes. After appropriate compound incubation, assay signal was generated through incubation with 20 μL cAMP XS+ED/CL lysis cocktail for one hour followed by incubation with 20 μL cAMP XS+EA reagent for three hours at room temperature. Microplates were read following signal generation with a PerkinElmer Envision™ instrument for chemiluminescent signal detection. Compound activity (IC50) was analyzed using CBIS data analysis suite (ChemInnovation, CA).
# Sequence of CB1 (CNR1) (P21554 whole entry): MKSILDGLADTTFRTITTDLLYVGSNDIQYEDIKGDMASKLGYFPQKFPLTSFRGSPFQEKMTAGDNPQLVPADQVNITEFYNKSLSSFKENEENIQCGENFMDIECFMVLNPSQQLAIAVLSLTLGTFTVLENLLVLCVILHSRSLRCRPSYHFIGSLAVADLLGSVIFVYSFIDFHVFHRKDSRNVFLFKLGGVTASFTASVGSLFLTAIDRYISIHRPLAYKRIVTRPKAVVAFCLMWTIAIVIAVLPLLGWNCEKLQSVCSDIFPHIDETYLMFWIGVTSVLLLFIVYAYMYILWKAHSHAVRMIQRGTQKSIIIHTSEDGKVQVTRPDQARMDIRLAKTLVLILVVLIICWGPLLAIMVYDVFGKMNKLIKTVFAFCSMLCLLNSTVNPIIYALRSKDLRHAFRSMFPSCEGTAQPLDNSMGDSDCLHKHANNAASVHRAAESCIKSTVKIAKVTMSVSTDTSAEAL
row,Compound,IC50 [µM]
1,CC(C)NS(=O)(=O)c1cc(Cl)cc2c1OC(C)C(=O)N2 (centres unmarked) [BC19293],≥ 25
2,CC1Oc2c(cc(Cl)cc2S(=O)(=O)Nc2ccc(Cl)cc2)NC1=O (centres unmarked) [BC19697],≥ 25
3,CCc1ccc(NS(=O)(=O)c2cc(Cl)cc3c2OC(CC)C(=O)N3)cc1 (centres unmarked) [BC19742],1 to 25
4,CCc1ccc(NS(=O)(=O)c2cc(Br)cc3c2OCCNC3=O)cc1 [BC19604],1 to 25
5,O=C1CCOc2cc(S(=O)(=O)Nc3ccc(Cl)cc3)c(Br)cc2N1 [BC19656],≥ 25
6,CC(=O)N1CC(=O)Nc2ccc(S(=O)(=O)N3CCCC3)cc21 [BC19295],≥ 25
7,CCC1Oc2cc(S(=O)(=O)Nc3ccc(F)cc3)c(Cl)cc2NC1=O (centres unmarked) [BC19731],1 to 25
8,Cc1ccc(NS(=O)(=O)c2cc3c(cc2Cl)NC(=O)CO3)cc1Cl [BC19165],1 to 25
9,CCc1ccc(NS(=O)(=O)c2cc3c(cc2Br)N(C)C(=O)C(CC)O3)cc1 (centres unmarked) [BC19932],≥ 25
10,CCc1cccc(NS(=O)(=O)c2cc3c(cc2Br)NC(=O)CO3)c1 [BC19167],< 1
11,CCC1Oc2cc(S(=O)(=O)Nc3cccc(F)c3)c(Br)cc2NC1=O (centres unmarked) [BC19220],≥ 25
12,Cc1ccc(NS(=O)(=O)c2c(C)c(Cl)cc3c2OCC(=O)N3)cc1 [BC19432],≥ 25
13,Cc1ccc(NS(=O)(=O)c2cc(S(C)(=O)=O)cc3c2OCC(=O)N3)cc1 [BC19488],≥ 25
14,COc1ccc(NS(=O)(=O)c2cc3c(cc2Cl)NC(=O)C(C)O3)cc1 (centres unmarked) [BC19706],≥ 25
15,CCc1cccc(NS(=O)(=O)c2cc(S(=O)(=O)CC)cc3c2OCC(=O)N3)c1 [BC19439],≥ 25
16,CCNS(=O)(=O)c1cc2c(cc1Cl)NC(=O)C(C)O2 (centres unmarked) [BC19209],≥ 25
17,CCC1Oc2c(cc(Cl)cc2S(=O)(=O)Nc2ccc(OC(F)(F)F)cc2)NC1=O (centres unmarked) [BC19734],1 to 25
18,CC1Oc2cc(S(=O)(=O)Nc3ccc(F)cc3Cl)c(Cl)cc2NC1=O (centres unmarked) [BC19719],1 to 25
19,CC1Oc2cc(S(=O)(=O)Nc3ccc(F)cc3F)c(Cl)cc2NC1=O (centres unmarked) [BC19709],1 to 25
20,COc1ccc(NS(=O)(=O)c2cc(Br)cc3c2OCCC(=O)N3)cc1Cl [BC19688],1 to 25
21,CCCNS(=O)(=O)c1cc(Br)cc2c1OC(CC)C(=O)N2 (centres unmarked) [BC19229],≥ 25
22,CCC1Oc2c(cc(Cl)cc2S(=O)(=O)Nc2ccc(F)cc2F)NC1=O (centres unmarked) [BC19748],≥ 25

row,Compound,IC50 [µM]
1,Cc1ccc(NS(=O)(=O)c2cc(Br)cc3c2OCCNC3=O)cc1Cl [BC19607],1 to 25
2,N#Cc1ccc(NS(=O)(=O)c2cc(Br)cc3c2OCCNC3=O)cc1 [BC19615],≥ 25
3,CCc1cccc(NS(=O)(=O)c2cc(Br)cc3c2OCC(=O)N3)c1 [BC19180],≥ 25
4,O=C1COc2cc(S(=O)(=O)Nc3ccc(C(F)(F)F)cc3Cl)c(Br)cc2N1 [BC19390],≥ 25
5,CCC1Oc2cc(S(=O)(=O)Nc3ccc(F)c(F)c3)c(Cl)cc2NC1=O (centres unmarked) [BC19735],≥ 25
6,CCC1Oc2cc(S(=O)(=O)Nc3cccc(Cl)c3)c(Cl)cc2NC1=O (centres unmarked) [BC19751],< 1
7,COc1ccc(NS(=O)(=O)c2cc(Br)cc3c2OCCNC3=O)cc1 [BC19606],≥ 25
8,CCC1Oc2cc(S(=O)(=O)Nc3ccc(C(C)C)cc3)c(Br)cc2N(C)C1=O (centres unmarked) [BC19934],≥ 25
9,CC1Oc2cc(S(=O)(=O)Nc3cccc(Cl)c3)c(Cl)cc2NC1=O (centres unmarked) [BC19715],< 1
10,Cc1ccc(NS(=O)(=O)c2cc3c(cc2Br)N(C)C(=O)C(C)O3)cc1F (centres unmarked) [BC19786],≥ 25
11,O=C1NCCOc2c1cc(Br)cc2S(=O)(=O)Nc1ccc(Cl)cc1 [BC19603],≥ 25
12,O=C1COc2c(cc(Br)cc2S(=O)(=O)NCCc2ccc(OC(F)(F)F)cc2)N1 [BC19383],≥ 25
13,CS(=O)(=O)c1cc2c(c(S(=O)(=O)Nc3cccc(F)c3)c1)OCC(=O)N2 [BC19426],≥ 25
14,CC1Oc2cc(S(=O)(=O)Nc3ccc(C#N)cc3)c(Cl)cc2NC1=O (centres unmarked) [BC19729],< 1
15,CCC1Oc2c(cc(Br)cc2S(=O)(=O)Nc2cccc(Cl)c2)NC1=O (centres unmarked) [BC19232],≥ 25
16,O=C1COc2cc(S(=O)(=O)Nc3ccccc3)c(Cl)cc2N1 [BC19161],< 1
17,CCC1Oc2c(cc(Br)cc2S(=O)(=O)NCc2ccc(C(F)(F)F)cc2)NC1=O (centres unmarked) [BC19377],≥ 25
18,CCCNS(=O)(=O)c1cc2c(cc1Br)NC(=O)C(CC)O2 (centres unmarked) [BC19222],1 to 25
19,O=C1CCOc2cc(S(=O)(=O)Nc3ccc(F)cc3F)c(Br)cc2N1 [BC19693],1 to 25
20,CCC1Oc2cc(S(=O)(=O)Nc3ccc(C)c(Cl)c3)c(Cl)cc2NC1=O (centres unmarked) [BC19745],1 to 25
21,CCc1ccc(NS(=O)(=O)c2cc3c(cc2Br)NC(=O)CO3)cc1 [BC19138],< 1
22,O=C1COc2c(cc(Br)cc2S(=O)(=O)NCc2ccc(F)cc2F)N1 [BC19386],≥ 25

row,Compound,IC50 [µM]
1,CCc1cccc(NS(=O)(=O)c2cc3c(cc2Br)N(C)C(=O)C(CC)O3)c1 (centres unmarked) [BC19916],1 to 25
2,CCC1Oc2cc(S(=O)(=O)Nc3cc(Cl)ccc3C)c(Cl)cc2NC1=O (centres unmarked) [BC19215],≥ 25
3,CCC1Oc2cc(S(=O)(=O)Nc3ccc(C(F)(F)F)cc3Cl)c(Br)cc2NC1=O (centres unmarked) [BC19371],≥ 25
4,CNC(=O)N1c2cc(S(=O)(=O)N3CCCC3)ccc2NC(=O)C1C (centres unmarked) [BC19236],≥ 25
5,CC1Oc2cc(S(=O)(=O)NCCc3ccc(OC(F)(F)F)cc3)c(Br)cc2NC1=O (centres unmarked) [BC19359],1 to 25
6,Cc1ccc(NS(=O)(=O)c2cc(S(C)(=O)=O)cc3c2OCC(=O)N3)cc1Cl [BC19486],≥ 25
7,CCC1Oc2cc(S(=O)(=O)NCc3ccccc3)c(Br)cc2NC1=O (centres unmarked) [BC19287],1 to 25
8,CCC1Oc2c(cc(Br)cc2S(=O)(=O)Nc2ccccc2)N(C)C1=O (centres unmarked) [BC19927],≥ 25
9,Cc1c(Cl)cc2c(c1S(=O)(=O)Nc1ccc(F)c(F)c1)OCC(=O)N2 [BC19489],≥ 25
10,CC(C)CC1Oc2c(cc(Br)cc2S(=O)(=O)Nc2ccc(F)c(F)c2)NC1=O (centres unmarked) [BC19759],1 to 25
11,COc1ccc(NS(=O)(=O)c2cc(Br)cc3c2OCCNC3=O)cc1Cl [BC19614],≥ 25
12,CC(C)CC1Oc2cc(S(=O)(=O)Nc3ccccc3)c(Br)cc2NC1=O (centres unmarked) [BC19762],≥ 25
13,CCS(=O)(=O)c1cc2c(c(S(=O)(=O)Nc3ccc(C)cc3)c1)OCC(=O)N2 [BC19546],≥ 25
14,O=C1COc2c(cc(Cl)cc2S(=O)(=O)Nc2ccccc2)N1 [BC19168],1 to 25
15,CC1Oc2cc(S(=O)(=O)Nc3ccc(F)c(F)c3)c(Br)cc2NC1=O (centres unmarked) [BC19284],≥ 25
16,COc1ccc(NS(=O)(=O)c2cc(Cl)cc3c2OC(C)C(=O)N3)cc1 (centres unmarked) [BC19707],≥ 25
17,CCc1ccc(NS(=O)(=O)c2cc(Br)cc3c2OCC(=O)N3)cc1 [BC19179],1 to 25
18,COc1ccc(NS(=O)(=O)c2cc(S(C)(=O)=O)cc3c2OCC(=O)N3)cc1 [BC19485],≥ 25
19,CS(=O)(=O)c1cc2c(c(S(=O)(=O)Nc3ccc(F)cc3Cl)c1)OCC(=O)N2 [BC19428],≥ 25
20,CC(C)CC1Oc2c(cc(Br)cc2S(=O)(=O)Nc2ccc(F)cc2F)NC1=O (centres unmarked) [BC19769],1 to 25
21,CC1Oc2cc(S(=O)(=O)Nc3ccc(Cl)cc3)c(Br)cc2N(C)C1=O (centres unmarked) [BC19792],≥ 25
22,CC(C)CC1Oc2c(cc(Br)cc2S(=O)(=O)Nc2ccc(F)cc2Cl)NC1=O (centres unmarked) [BC19777],≥ 25

row,Compound,IC50 [µM]
1,CCc1cccc(NS(=O)(=O)c2cc(Br)cc3c2OC(C)C(=O)N3)c1 (centres unmarked) [BC19288],1 to 25
2,CCS(=O)(=O)c1cc2c(c(S(=O)(=O)Nc3ccc(F)cc3)c1)OCC(=O)N2 [BC19443],≥ 25
3,CCC1Oc2cc(S(=O)(=O)NC3CCC(O)CC3)c(Br)cc2NC1=O (centres unmarked) [BC19372],≥ 25
4,CCc1ccc(NS(=O)(=O)c2cc3c(cc2Br)NC(=O)C(C)O3)cc1 (centres unmarked) [BC19216],< 1
5,CCc1ccc(NS(=O)(=O)c2cc(S(=O)(=O)CC)cc3c2OCC(=O)N3)cc1 [BC19492],≥ 25
6,O=C1COc2cc(S(=O)(=O)Nc3ccc(Cl)cc3)c(Cl)cc2N1 [BC19133],< 1
7,O=C1COc2cc(S(=O)(=O)NCc3ccc(OC(F)(F)F)cc3)c(Br)cc2N1 [BC19392],≥ 25
8,CCC1Oc2c(cc(Br)cc2S(=O)(=O)NC2CCC(C(C)(C)C)CC2)NC1=O (centres unmarked) [BC19379],1 to 25
9,CS(=O)(=O)c1cc2c(c(S(=O)(=O)Nc3ccc(OC(F)(F)F)cc3)c1)OCC(=O)N2 [BC19422],≥ 25
10,CCC1Oc2cc(S(=O)(=O)Nc3ccc(F)cc3F)c(Br)cc2N(C)C1=O (centres unmarked) [BC19914],1 to 25
11,CC1Oc2cc(S(=O)(=O)NCc3ccc(C(F)(F)F)cc3)c(Br)cc2NC1=O (centres unmarked) [BC19358],1 to 25
12,O=C1COc2cc(S(=O)(=O)NC3CCC(O)CC3)c(Br)cc2N1 (centres unmarked) [BC19389],≥ 25
13,CC1Oc2c(cc(Cl)cc2S(=O)(=O)Nc2cccc(Cl)c2)NC1=O (centres unmarked) [BC19716],1 to 25
14,CC1Oc2cc(S(=O)(=O)Nc3ccc(F)cc3F)c(Br)cc2N(C)C1=O (centres unmarked) [BC19799],≥ 25
15,CC1Oc2cc(S(=O)(=O)Nc3ccc(C#N)cc3)c(Br)cc2N(C)C1=O (centres unmarked) [BC19920],1 to 25
16,CCS(=O)(=O)c1cc2c(c(S(=O)(=O)Nc3ccc(OC)cc3)c1)OCC(=O)N2 [BC19438],≥ 25
17,CC(C)c1ccc(NS(=O)(=O)c2cc3c(cc2Cl)NC(=O)CO3)cc1 [BC19136],< 1
18,CCC1Oc2c(cc(Cl)cc2S(=O)(=O)Nc2ccc(OC)c(Cl)c2)NC1=O (centres unmarked) [BC19744],≥ 25
19,CC(C)c1ccc(NS(=O)(=O)c2cc(Br)cc3c2OCCNC3=O)cc1 [BC19605],≥ 25
20,O=C1CCOc2cc(S(=O)(=O)Nc3ccccc3)c(Br)cc2N1 [BC19689],≥ 25

# Source: patent US20240000806A1, “METHODS AND MATERIALS FOR INHIBITING CB1 ACTIVITY” (University of Pittsburgh - Of the Commonwealth System of …, priority 2020, published 2024)
